The source made the active and inactive calls. No cut-off for these calls is given here.
Legend:
NCI-H1581 [1] = assay: Antitumor activity against human NCI-H1581 cells xenografted in BALB/c nude mouse assessed as tumor growth inhibition at 60 mg/kg relative to control; assay type: functional; conditions: read-out: TGI
NCI-H1581 [2] = assay: cells; conditions: Homo sapiens, NCI-H1581, 48 h
Description: Antiproliferative activity against human NCI-H1581 cells assessed as inhibition of cell proliferation incubated for 48 hrs by MTT assay

A549 = assay: cells; conditions: Homo sapiens, A549, 48 h
Description: Antiproliferative activity against human A549 cells assessed as inhibition of cell proliferation incubated for 48 hrs by MTT assay

[3] = target: Fibroblast growth factor receptor 1 (Homo sapiens) (UniProt P11362); conditions: dose 1000.0 nM
Description: Inhibition of FGFR1 (unknown origin) at 1000 nM by caliper mobility shift assay relative to control

[4] = target: Fibroblast growth factor receptor 1 (Homo sapiens) (UniProt P11362); assay: Reversible inhibition of FGFR1 (unknown origin) phosphorylation in human NCI-H1581 cells at 1 uM preincubated with compound for 2 hrs followed by compound washout and measured after 0.5 hrs by Western blotting analysis; assay type: cell-based

Fibroblast growth factor receptor 1 (Homo sapiens), sequence (P11362 22-822 limits assumed): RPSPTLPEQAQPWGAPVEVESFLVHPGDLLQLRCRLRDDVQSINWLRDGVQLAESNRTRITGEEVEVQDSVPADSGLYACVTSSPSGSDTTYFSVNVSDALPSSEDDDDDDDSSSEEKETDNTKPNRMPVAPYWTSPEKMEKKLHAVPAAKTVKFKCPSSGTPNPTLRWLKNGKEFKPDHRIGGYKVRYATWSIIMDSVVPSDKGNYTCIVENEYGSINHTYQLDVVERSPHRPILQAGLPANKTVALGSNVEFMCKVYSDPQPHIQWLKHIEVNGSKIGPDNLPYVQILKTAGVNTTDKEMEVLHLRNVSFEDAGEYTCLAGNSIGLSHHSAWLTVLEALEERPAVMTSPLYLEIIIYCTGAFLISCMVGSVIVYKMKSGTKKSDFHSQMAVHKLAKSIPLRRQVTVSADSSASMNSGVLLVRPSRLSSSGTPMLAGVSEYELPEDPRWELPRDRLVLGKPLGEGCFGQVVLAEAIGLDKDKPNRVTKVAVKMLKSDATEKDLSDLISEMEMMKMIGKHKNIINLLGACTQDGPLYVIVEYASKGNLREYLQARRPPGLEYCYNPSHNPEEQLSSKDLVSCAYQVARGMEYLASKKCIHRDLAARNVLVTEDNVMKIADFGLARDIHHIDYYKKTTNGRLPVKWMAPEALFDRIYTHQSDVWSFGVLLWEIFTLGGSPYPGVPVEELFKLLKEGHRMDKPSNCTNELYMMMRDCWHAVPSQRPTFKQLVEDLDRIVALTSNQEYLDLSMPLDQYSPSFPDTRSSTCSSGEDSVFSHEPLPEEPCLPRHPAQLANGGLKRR

| IC50 (NCI-H1581 [2]) [nM] | IC50 (A549) [nM] | inhibition [3] [%] | inhibition [4] | Compound | inhibition in vivo at 60 mg/kg (NCI-H1581 [1]) [%] |
| --- | --- | --- | --- | --- | --- |
|  |  | 94.9 |  | C=CC(=O)Nc1ccccc1Nc1nc(Nc2ccc(N3CCN(C)CC3)cc2)ncc1Cl |  |
|  |  |  | inactive | Cc1ccc(C(=O)Nc2ccc(CN3CCN(C)CC3)c(C(F)(F)F)c2)cc1C#Cc1cnc2cccnn12 |  |
| 120 | 12100 |  |  | C=CC(=O)Nc1ccc(Nc2nc(Nc3ccc(N4CCC(N(C)C)CC4)c(OC)c3)ncc2Cl)cc1Cl |  |
| 210 | 1180 |  |  | C=CC(=O)Nc1ccc(Nc2nc(Nc3ccc(N4C[C@@H](C)N[C@@H](C)C4)cc3)ncc2Cl)cc1Cl |  |
| 130 | 4150 |  |  | C=CC(=O)Nc1ccc(Nc2nc(Nc3ccc(N4CCN(C)CC4)c(F)c3)ncc2Cl)cc1Cl |  |
| 170 | 9030 |  |  | C=CC(=O)Nc1ccc(Nc2nc(Nc3ccc(N4CCN(CC)CC4)c(OC)c3)ncc2Cl)cc1Cl |  |
| 470 | 3180 |  |  | C=CC(=O)Nc1ccc(Nc2nc(Nc3ccc(N4CCN(C)CC4)nc3)ncc2Cl)cc1Cl |  |

| Compound | IC50 (NCI-H1581 [2]) [nM] | IC50 (A549) [nM] | inhibition [3] [%] | inhibition [4] | inhibition in vivo at 60 mg/kg (NCI-H1581 [1]) [%] |
| --- | --- | --- | --- | --- | --- |
| C=CC(=O)N1CC[C@H](n2nc(C#Cc3cc(OC)cc(OC)c3)c3c(N)ncnc32)C1 [FUTIBATINIB] | 5 | > 20000 |  |  | 54 |

Source: ChEMBL document CHEMBL6103630, “Discovery of Novel 2,4,5-Trisubstituted Pyrimidine Derivatives as Potent and Selective FGFR Inhibitors against Gatekeeper Mutants for the Treatment of NSCLC” (J Med Chem, 2025)
